Laboratory results from US20210230213A1, “ARAMCHOL SALTS” (GALMED RESEARCH AND DEVELOPMENT LTD., priority 2013, published 2021).

Experiment: Twice daily administration for 10 days of Aramchol and Aramchol meglumine in humans (Example 9)
Assay type: in vivo
Details: free acid 300 mg, meglumine salt 383 mg
Protocol: 300 mg aramchol free acid were administered to human subjects twice daily, and 383 mg aramchol meglumine salt were administered to human subjects twice daily, as detailed in FIG. 13.

Q: Which “AUCss 0-12 h” value (BID for 10 days) does the source give for “3β-arachidylamido-7α,12α-dihydroxy-5β-cholan-24-oic acid N-methylglucamine salt” here?
A: The value was 109 µg·h/mL.

Q: What about the Cavg (BID for 10 days, listed as 3β-arachidylamido-7α,12α-dihydroxy-5β-cholan-24-oic acid-meglumine salt) of the same substance?
A: Its Cavg is 8,318 ng/ml.

Q: And the Cavg (BID for 10 days, listed as Aramchol Meglumine)?
A: The Cavg was 8318 ng/mL.

Q: What about the Cavg (BID for 10 days, listed as aramchol meglumine salt) of the same substance?
A: Its Cavg is 8318 ng/mL.

Q: And the AUCss (BID)?
A: Its AUCss is 109,000 ng*h/mL.
